Measurements taken from patent US9701662B2, “Herbicidal compounds” (Syngenta Participations AG, priority 2014, dated 2017).

Assays:
Type in all cases: in vivo
[1] = system: Lolium perenne (LOLPE); assay: Pre-emergence glasshouse herbicide test; details: pre-emergence (sprayed after one day cultivation), 1000 g/h, evaluated after 13 days, five point scale
Experimental: (§1) Seeds of a variety of test species are sown in standard soil in pots (Lolium perenne (LOLPE), Solanum nigrum (SOLNI), Amaranthus retoflexus (AMARE), Setaria faberi (SETFA), Echinochloa crus-galli (ECHCG), Ipomoea hederacea (IPOHE)). After cultivation for one day (pre-emergence) or after 8 days cultivation (post-emergence) under controlled conditions in a glasshouse (at 24/16° C., day/night; 14 hours light; 65% humidity), the plants are sprayed with an aqueous spray solution derived from the formulation of the technical active ingredient in acetone/water (50:50) solution containing 0.5% Tween 20 (polyoxyethelyene sorbitan monolaurate, CAS RN 9005-64-5). Compounds are applied at 1000 g/h. The test plants are then grown in a glasshouse under controlled conditions in a glasshouse (at 24/16° C., day/night; 14 hours light; 65% humidity) and watered twice daily. After 13 days for pre and post-emergence, the test is evaluated for the percentage damage caused to the plant. The biological activities are shown in the following table on a five point scale (5=80-100%; 4=60-79%; 3=40-59%; 2=20-39%; 1=0-19%).

[2] = system: Echinochloa crus-galli (ECHCG); assay: Pre-emergence glasshouse herbicide test; details: pre-emergence (sprayed after one day cultivation), 1000 g/h, evaluated after 13 days, five point scale
Experimental: as §1

[3] = system: Solanum nigrum (SOLNI); assay: Pre-emergence glasshouse herbicide test; details: pre-emergence (sprayed after one day cultivation), 1000 g/h, evaluated after 13 days, five point scale
Experimental: as §1

[4] = system: Setaria faberi (SETFA); assay: Pre-emergence glasshouse herbicide test; details: pre-emergence (sprayed after one day cultivation), 1000 g/h, evaluated after 13 days, five point scale
Experimental: as §1

[5] = system: Ipomoea hederacea (IPOHE); assay: Pre-emergence glasshouse herbicide test; details: pre-emergence (sprayed after one day cultivation), 1000 g/h, evaluated after 13 days, five point scale
Experimental: as §1

[6] = system: Amaranthus retoflexus (AMARE); assay: Pre-emergence glasshouse herbicide test; details: pre-emergence (sprayed after one day cultivation), 1000 g/h, evaluated after 13 days, five point scale
Experimental: as §1

[7] = system: Lolium perenne (LOLPE); assay: Post-emergence glasshouse herbicide test; details: post-emergence (sprayed after 8 days cultivation), 1000 g/h, evaluated after 13 days, five point scale
Experimental: as §1

[8] = system: Echinochloa crus-galli (ECHCG); assay: Post-emergence glasshouse herbicide test; details: post-emergence (sprayed after 8 days cultivation), 1000 g/h, evaluated after 13 days, five point scale
Experimental: as §1

[9] = system: Solanum nigrum (SOLNI); assay: Post-emergence glasshouse herbicide test; details: post-emergence (sprayed after 8 days cultivation), 1000 g/h, evaluated after 13 days, five point scale
Experimental: as §1

[10] = system: Setaria faberi (SETFA); assay: Post-emergence glasshouse herbicide test; details: post-emergence (sprayed after 8 days cultivation), 1000 g/h, evaluated after 13 days, five point scale
Experimental: as §1

[11] = system: Ipomoea hederacea (IPOHE); assay: Post-emergence glasshouse herbicide test; details: post-emergence (sprayed after 8 days cultivation), 1000 g/h, evaluated after 13 days, five point scale
Experimental: as §1

[12] = system: Amaranthus retoflexus (AMARE); assay: Post-emergence glasshouse herbicide test; details: post-emergence (sprayed after 8 days cultivation), 1000 g/h, evaluated after 13 days, five point scale
Experimental: as §1

Row | Structure (SMILES) | percentage damage caused to the plant, LOLPE, PRE Application [1] | percentage damage caused to the plant, ECHCG, PRE Application [2] | percentage damage caused to the plant, SOLNI, PRE Application [3] | percentage damage caused to the plant, SETFA, PRE Application [4] | percentage damage caused to the plant, IPOHE, PRE Application [5] | percentage damage caused to the plant, AMARE, PRE Application [6] | percentage damage caused to the plant, LOLPE, POST Application [7] | percentage damage caused to the plant, ECHCG, POST Application [8] | percentage damage caused to the plant, SOLNI, POST Application [9] | percentage damage caused to the plant, SETFA, POST Application [10] | percentage damage caused to the plant, IPOHE, POST Application [11] | percentage damage caused to the plant, AMARE, POST Application [12]
1 | Cn1nnnc1NC(=O)c1nn(C)c(=O)c(-c2cccc(Cl)c2)c1Cl [Compound 1.012] | 5 (5=80-100%) | 5 (5=80-100%) | 5 (5=80-100%) | 5 (5=80-100%) | 4 (4=60-79%) | 5 (5=80-100%) | 5 (5=80-100%) | 5 (5=80-100%) | 5 (5=80-100%) | 4 (4=60-79%) | 3 (3=40-59%) | 5 (5=80-100%)
2 | Cn1nnnc1NC(=O)c1nn(C)c(=O)c(-c2ccc(Cl)cc2)c1Cl [Compound 1.013] | 5 (5=80-100%) | 5 (5=80-100%) | 5 (5=80-100%) | 5 (5=80-100%) | 2 (2=20-39%) | 5 (5=80-100%) | 5 (5=80-100%) | 5 (5=80-100%) | 5 (5=80-100%) | 3 (3=40-59%) | 2 (2=20-39%) | 3 (3=40-59%)
3 | Cc1ccc(-c2c(Cl)c(C(=O)Nc3nnnn3C)nn(C)c2=O)cc1 [Compound 1.015] | 5 (5=80-100%) | 5 (5=80-100%) | 5 (5=80-100%) | 5 (5=80-100%) | 2 (2=20-39%) | 5 (5=80-100%) | 5 (5=80-100%) | 5 (5=80-100%) | 5 (5=80-100%) | 5 (5=80-100%) | 3 (3=40-59%) | 5 (5=80-100%)
4 | COc1ccc(-c2c(Cl)c(C(=O)Nc3nnnn3C)nn(C)c2=O)cc1 [Compound 1.016] | 5 (5=80-100%) | 5 (5=80-100%) | 5 (5=80-100%) | 5 (5=80-100%) | 1 (1=0-19%) | 5 (5=80-100%) | 5 (5=80-100%) | 5 (5=80-100%) | 5 (5=80-100%) | 5 (5=80-100%) | 4 (4=60-79%) | 5 (5=80-100%)
5 | COc1ccc(-c2c(Cl)c(C(=O)Nc3nnnn3C)nn(C)c2=O)cc1OC [Compound 1.017] | 5 (5=80-100%) | 5 (5=80-100%) | 5 (5=80-100%) | 5 (5=80-100%) | 5 (5=80-100%) | 5 (5=80-100%) | 5 (5=80-100%) | 5 (5=80-100%) | 5 (5=80-100%) | 5 (5=80-100%) | 5 (5=80-100%) | 5 (5=80-100%)
